Assay results: US20130310344A1, “N-ACYLSULFONAMIDE APOPTOSIS PROMOTERS” (ASTRAZENECA AB, priority 2010, published 2013)
pIC50: −log10 of the molar value. Counter-ions that a name gives are not always drawn.

How the values were obtained:
[1] = target: T1, Bcl-XL (Homo sapiens, UniProt Q07817); experiment: Bcl-XL FP assay (competitive fluorescence polarization binding assay, FITC-Bim BH-3 peptide tracer); details: C-terminal 6×HIS tagged Bcl-XL (aa 1-209), 0.8 nM; 2 nM FITC-Bim peptide tracer
T1 construct: a C-terminal 6×HIS tagged Bcl-XL (aa 1-209); 6xHis (C)
Text: (§1) Bcl-xL and Bcl-2 FP binding affinity of compound(s) of Formulae (I), (I-a), (I-b), (I-c), (I-d) and/or (I-e) may be determined using a variety of known methods. One such assay is a sensitive and quantitative in vitro binding assay using fluorescence polarization (“FP”) described by Wang, J.-L.; Zhang, Z-J.; Choksi, S.; Sjam. S.; Lu, Z.; Croce, C. M.; Alnemri, E. S.; Komgold, R.; Huang, Z. Cell permeable Bcl-2 binding peptides: a chemical approach to apoptosis induction in tumor cells. Cancer Res. 2000, 60, 1498-1502).
(§2) Additionally, the binding affinity of compound(s) of Formulae (I), (I-a), (I-b), (I-c), (I-d) and/or (I-e) to Bcl-2 protein in vitro was determined by a competitive binding assay based on fluorescence polarization. For example, fluorescence polarization (“FP”) assays may be developed using a c-terminal 6×HIS tagged Bcl-2 (aa 1-204) and a C-terminal 6×HIS tagged Bcl-XL (aa 1-209). […] Dilutions of either Bcl-2 (1.3 nM) or Bcl-XL (0.8 nM) may be added to serial dilutions of antagonist and incubated for one hour prior to the addition of 2 nM of fluorescent peptide tracer (Anaspec, Fremont, Calif.) in the assay buffer. Final assay buffer conditions may be 20 mM HEPES, pH 7.5, 1 mM DTT, 0.005% Tween-20 and 50 mM NaCl. Samples may be read after 20-minute incubation. Fluorescence polarization values may be plotted as a function of the antagonist concentration.

[2] = target: T2, Bcl-2 (Homo sapiens, UniProt P10415); experiment: Bcl-2 FP assay (competitive fluorescence polarization binding assay, FITC-Bim BH-3 peptide tracer); details: c-terminal 6×HIS tagged Bcl-2 (aa 1-204), 1.3 nM; 2 nM FITC-Bim peptide tracer
T2 construct: a c-terminal 6×HIS tagged Bcl-2 (aa 1-204); 6xHis (C)
Text: as §1, §2

T2 sequence (P10415 1-204): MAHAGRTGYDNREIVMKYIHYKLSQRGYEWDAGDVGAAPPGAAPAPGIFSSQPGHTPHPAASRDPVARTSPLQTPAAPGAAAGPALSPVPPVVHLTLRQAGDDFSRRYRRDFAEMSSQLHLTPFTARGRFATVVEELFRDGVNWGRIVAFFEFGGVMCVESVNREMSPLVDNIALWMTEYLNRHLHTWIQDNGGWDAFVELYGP
T1 sequence (Q07817 1-209): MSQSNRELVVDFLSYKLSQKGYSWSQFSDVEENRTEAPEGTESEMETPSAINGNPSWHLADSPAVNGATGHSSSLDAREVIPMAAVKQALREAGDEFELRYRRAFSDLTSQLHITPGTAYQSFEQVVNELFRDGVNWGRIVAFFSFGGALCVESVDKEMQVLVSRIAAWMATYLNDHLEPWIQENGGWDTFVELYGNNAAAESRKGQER

## N[C@@H](c1ccccc1-c1ccc(Cl)cc1)C1CCN(c2ccc(C(=O)NS(=O)(=O)c3ccc(N[C@H](CCN4CCN(CCO)CC4)CSc4ccccc4)c(S(=O)(=O)C(F)(F)F)c3)cc2)CC1 [Example 13, 4-(4-((R)-amino(4′-chlorobiphenyl-2-yl)methyl)piperidin-1-yl)-N-(4-((R)-4-(4-(2-hydroxyethyl)piperazin-1-yl)-1-(phenylthio)butan-2-ylamino)-3-(trifluoromethylsulfonyl)phenylsulfonyl)benzamide, formic acid salt]
[1]
  pIC50: 7.82
[2]
  pIC50: 7.80

## CN(CCO)CC[C@H](CSc1ccccc1)Nc1ccc(S(=O)(=O)NC(=O)c2ccc(N3CCC([C@@H](O)c4ccccc4-c4ccc(Cl)cc4)CC3)cc2)cc1S(=O)(=O)C(F)(F)F [Example 3, 4-(4-((R)-(4′-chlorobiphenyl-2-yl)(hydroxy)methyl)piperidin-1-yl)-N-(4-((R)-4-((2-hydroxyethyl)(methyl)amino)-1-(phenylthio)butan-2-ylamino)-3-(trifluoromethylsulfonyl)phenylsulfonyl)benzamide]
[1]
  pIC50: 9.00
[2]
  pIC50: > 9.52

## O=C(NS(=O)(=O)c1ccc(N[C@H](CCN(CCOP(=O)(O)O)CCOP(=O)(O)O)CSc2ccccc2)c(S(=O)(=O)C(F)(F)F)c1)c1ccc(N2CCC([C@@H](O)c3ccccc3-c3ccc(Cl)cc3)CC2)cc1 [Example 7, 2,2′-((R)-3-(4-(N-(4-(4-((R)-(4′-chlorobiphenyl-2-yl)(hydroxy)methyl)piperidin-1-yl)benzoyl)sulfamoyl)-2-(trifluoromethylsulfonyl)phenylamino)-4-(phenylthio)butylazanediyl)bis(ethane-2,1-diyl)bis(dihydrogen phosphate), hydrochloride salt]
[1]
  pIC50: 9.00
[2]
  pIC50: 8.70

## O=C(NS(=O)(=O)c1ccc(N[C@H](CCN2CCN(CCO)CC2)CSc2ccccc2)c(S(=O)(=O)C(F)(F)F)c1)c1ccc(N2CCC([C@@H](O)c3ccccc3-c3ccc(Cl)cc3)CC2)cc1 [Example 1, 4-(4-((R)-(4′-chlorobiphenyl-2-yl)(hydroxy)methyl)piperidin-1-yl)-N-(4-((R)-4-(4-(2-hydroxyethyl)piperazin-1-yl)-1-(phenylthio)butan-2-ylamino)-3-(trifluoromethylsulfonyl)phenylsulfonyl)benzamide, formic acid salt]
[1]
  pIC50: 9.00
[2]
  pIC50: > 9.00

## CNCC(=O)N[C@@H](c1ccccc1-c1ccc(Cl)cc1)C1CCN(c2ccc(C(=O)NS(=O)(=O)c3ccc(N[C@H](CCN4CCOCC4)CSc4ccccc4)c(S(=O)(=O)C(F)(F)F)c3)cc2)CC1 [Example 34, 4-(4-((R)-(4′-chlorobiphenyl-2-yl)(2-(methylamino)acetamido)methyl)piperidin-1-yl)-N-(4-((R)-4-morpholino-1-(phenylthio)butan-2-ylamino)-3-(trifluoromethylsulfonyl)phenylsulfonyl)benzamide, hydrochloride salt]
[1]
  pIC50: 7.72
[2]
  pIC50: 7.57

## CN(C)CC[C@H](CSc1ccccc1)Nc1ccc(S(=O)(=O)NC(=O)c2ccc(N3CCC([C@@H](O)c4ccccc4-c4ccc(Cl)cc4)CC3)cc2)cc1[N+](=O)[O-] [Example 2, 4-(4-((R)-(4′-chlorobiphenyl-2-yl)(hydroxy)methyl)piperidin-1-yl)-N-(4-((R)-4-(dimethylamino)-1-(phenylthio)butan-2-ylamino)-3-nitrophenylsulfonyl)benzamide]
[1]
  pIC50: 9.00
[2]
  pIC50: 9.52

## O=C(NS(=O)(=O)c1ccc(N[C@H](CCN2CCO[C@H](CO)C2)CSc2ccccc2)c(S(=O)(=O)C(F)(F)F)c1)c1ccc(N2CCC([C@@H](O)c3ccccc3-c3ccc(Cl)cc3)CC2)cc1 [Example 23, 4-(4-((R)-(4′-chlorobiphenyl-2-yl)(hydroxy)methyl)piperidin-1-yl)-N-(4-((R)-4-((S)-2-(hydroxymethyl)morpholino)-1-(phenylthio)butan-2-ylamino)-3-(trifluoromethylsulfonyl)phenylsulfonyl)benzamide, formic acid salt]
[1]
  pIC50: 9.00
[2]
  pIC50: 9.00
